Test results from patent US4457929A, “3-Quaternary ammonium methyl)-substituted cephalosporin derivatives” (Bristol-Myers Company, priority 1982, dated 1984).

Experiments:
[1] = test system: Penicillinsensitive S. aureus (5 strains); experiment: MIC by two-fold serial agar dilution, group (G+)-Ia; assay type: cell-based; conditions: Mueller-Hinton agar, penicillin-sensitive S. aureus, Example 1: two different batches; for MIC: Staphylococcus aureus, read-out: Geometric Mean of MIC (G+)-Ia
Text: (§1) The preferred compounds of Formula I are those in which R^1 is hydrogen, R^2 is methyl, R^3 is methyl or ethyl, and R^4 is methyl, ethyl, 2-hydroxyethyl, 2-(dimethylamino)ethyl, allyl or pyridylmethyl. Particularly preferred compounds are those in which R^1 is hydrogen, R^2 and R^3 are methyl, and R^4 is methyl, 2-hydroxyethyl or allyl. The most preferred compound is that in which R^1 is hydrogen and R^2, R^3 and R^4 are methyl. In the primary evaluation of the preferred compounds of this invention, the Minimum Inhibitory Concentrations (MIC's) of the compounds were determined by the two-fold serial agar dilution method in Mueller-Hinton agar against 32 strains of test organisms in six groups.
(G+)Ia: Penicillinsensitive S. aureus (5 strains)

[2] = test system: Penicillinresistant S. aureus (5 strains); experiment: MIC by two-fold serial agar dilution, group (G+)-Ib; assay type: cell-based; conditions: Staphylococcus aureus, Mueller-Hinton agar, penicillin-resistant S. aureus, Example 1: two different batches, read-out: Geometric Mean of MIC (G+)-Ib
Text: as §1
(G+)Ib: Penicillinresistant S. aureus (5 strains)

[3] = test system: Cephalothinsensitive E. coli (2 strains), Kl. pneumoniae (1 strain) and Pr. mirabilis (2 strains); experiment: MIC by two-fold serial agar dilution, group (G-)-Ia; assay type: cell-based; conditions: Mueller-Hinton agar, cephalothin-sensitive, 5 strains, Example 1: two different batches; for MIC: read-out: Geometric Mean of MIC (G-)-Ia
Text: as §1
(G-)Ia: Cephalothinsensitive E. coli (2 strains), Kl. pneumoniae (1
strain) and Pr. mirabilis (2 strains)

[4] = test system: Cephalothinresistant E. coli (3 strains) and Kl. pneumoniae (3 strains); experiment: MIC by two-fold serial agar dilution, group (G-)-Ib; assay type: cell-based; conditions: cephalothin-resistant, 6 strains, Example 1: two different batches; for MIC: Escherichia coli, read-out: Geometric Mean of MIC (G-)-Ib, Mueller-Hinton agar
Text: as §1
(G-)Ib: Cephalothinresistant E. coli (3 strains) and Kl. pneumoniae (3

[5] = test system: Pr. morganii (1 strain), Ent. cloacae (2 strains) and Ser. marcescens (2 strains); experiment: MIC by two-fold serial agar dilution, group (G-)-II; assay type: cell-based; conditions: Mueller-Hinton agar; 5 strains; Example 1: two different batches; read-out: Geometric Mean of MIC (G-)-II
Text: as §1
(G-)II: Pr. morganii (1 strain), Ent. cloacae (2 strains) and Ser.

[6] = test system: Ps. aeruginosa (6 strains); experiment: MIC by two-fold serial agar dilution, group (G-)-III; assay type: cell-based; conditions: Mueller-Hinton agar, Example 1: two different batches; for MIC: Pseudomonas aeruginosa, read-out: Geometric Mean of MIC (G-)-III
Text: as §1
(G-)III: Ps. aeruginosa (6 strains)

[7] = Mouse blood levels following a single intramuscular injection; assay type: in vivo; conditions: im, mice, 20 mg/kg
Method: The absorption of the most preferred Compound Ia (prepared in Example 1) was determined in mice following a single intramuscular injection of the test compound (dissolved in 0.1M phosphate buffer; pH 7) at a dosage of 20 mg/kg. Blood samples were collected from the orbital sinuses into heparinized capillary tubes and assayed in Mueller-Hinton medium using Morganella morganii A9695 as the test organism. The blood levels at various time intervals, the half-life values (t1/2) and the areas under the curve (AUC) are shown in Table 2.

S. pyogenes (6 strains) = experiment: In vitro activity against fastidious bacteria in GC agar: S. pyogenes; assay type: cell-based; conditions: Streptococcus pyogenes, read-out: Geometric Mean of MIC
Method: (§2) The in vitro activity of the most preferred Compound Ia against 31 strains of fastidious bacteria was determined in GC agar, and the results are shown in Table 3.

S. pneumoniae (6) = experiment: In vitro activity against fastidious bacteria in GC agar: S. pneumoniae; assay type: cell-based; conditions: Streptococcus pneumoniae, 6 strains, read-out: Geometric Mean of MIC
Method: as §2

N. gonorrhoeae (4) = experiment: In vitro activity against fastidious bacteria in GC agar: N. gonorrhoeae; assay type: cell-based; conditions: Neisseria gonorrhoeae, 4 strains, read-out: Geometric Mean of MIC
Method: as §2

N. meningitidis (5) = experiment: In vitro activity against fastidious bacteria in GC agar: N. meningitidis; assay type: cell-based; conditions: Neisseria meningitidis, 5 strains, read-out: Geometric Mean of MIC
Method: as §2

[8] = test system: H. influenzae (7) (ampicillin sensitive); experiment: In vitro activity against fastidious bacteria in GC agar: H. influenzae (ampicillin sensitive); assay type: cell-based; conditions: Haemophilus influenzae, 7 strains, read-out: Geometric Mean of MIC
Method: as §2

[9] = test system: H. influenzae (3) (ampicillin resistant); experiment: In vitro activity against fastidious bacteria in GC agar: H. influenzae (ampicillin resistant); assay type: cell-based; conditions: Haemophilus influenzae, 3 strains, read-out: Geometric Mean of MIC
Method: as §2

Compound | MIC [1] | MIC [2] | MIC [3] | MIC [4] | MIC [5] | MIC [6] | also measured
CO/N=C(\C(=O)NC1C(=O)N2C(C(=O)[O-])=C(C[N+](C)(C)CCO)CSC12)c1csc(N)n1 (centres unmarked) [Example 2, 7-[(Z)-2-(2-Aminothiazol-4-yl)-2-methoxyiminoacetamido]-3-[N,N-dimethyl-N-(2-hydroxyethyl)ammonium]methyl-3-cephem-4-carboxylate] | 1.6 µg/mL | 4.7 µg/mL | 0.038 µg/mL | 0.18 µg/mL | 0.6 µg/mL | 3.5 µg/mL | 
CO/N=C(\C(=O)NC1C(=O)N2C(C(=O)[O-])=C(C[N+](C)(C)C)CSC12)c1csc(N)n1 (centres unmarked) [Example 1, 7-[(Z)-2-(2-Aminothiazol-4-yl)-2-methoxyiminoacetamido]-3-(trimethylammonium)methyl-3-cephem-4-carboxylate] | 1.1 µg/mL | 3.6 µg/mL | 0.033 µg/mL | 0.25 µg/mL | 0.69 µg/mL | 3.2 µg/mL | Geometric Mean of MIC (G+)-Ia [1]: 1.6 µg/mL; Geometric Mean of MIC (G-)-Ia [3]: 0.029 µg/mL; Geometric Mean of MIC (G-)-Ib ([4]; Mueller-Hinton agar): 0.20 µg/mL; Geometric Mean of MIC (G-)-III [6]: 4.0 µg/mL; AUC [7]: 10000 ng·h/mL; half-life [7]: 24 min; concentration at 10 min ([7]; 10 minutes, read-out: Blood levels at minutes after administration: 10): 14000 ng/mL; concentration at 20 min ([7]; 20 minutes, read-out: Blood levels at minutes after administration: 20): 12000 ng/mL; concentration at 0.5 h ([7]; 30 minutes, read-out: Blood levels at minutes after administration: 30): 8800 ng/mL; concentration at 40 min ([7]; 40 minutes, read-out: Blood levels at minutes after administration: 40): 7500 ng/mL; concentration at 50 min ([7]; 50 minutes, read-out: Blood levels at minutes after administration: 50): 4700 ng/mL; concentration at 1 h ([7]; 60 minutes, read-out: Blood levels at minutes after administration: 60): 4400 ng/mL; concentration at 1.5 h ([7]; 90 minutes, read-out: Blood levels at minutes after administration: 90): 1500 ng/mL; concentration at 2 h ([7]; 120 minutes, read-out: Blood levels at minutes after administration: 120): 740 ng/mL; MIC (S. pyogenes (6 strains)): 0.013 µg/mL; MIC (S. pneumoniae (6)): 0.013 µg/mL; MIC (N. gonorrhoeae (4)): 0.013 µg/mL; MIC (N. meningitidis (5)): 0.016 µg/mL; MIC [8]: 0.013 µg/mL; MIC [9]: 0.2 µg/mL
CCO/N=C(\C(=O)NC1C(=O)N2C(C(=O)[O-])=C(C[N+](C)(C)C)CSC12)c1csc(N)n1 (centres unmarked) [Example 8, 7-[(Z)-2-(2-Aminothiazol-4-yl)-2-ethoxyiminoacetamido]-3-(trimethylammonium)methyl-3-cephem-4-carboxylate] | 2.1 µg/mL | 5.5 µg/mL | 0.087 µg/mL | 0.5 µg/mL | 1.4 µg/mL | 7.9 µg/mL | 
C=CC[N+](C)(C)CC1=C(C(=O)[O-])N2C(=O)C(NC(=O)/C(=N\OC)c3csc(N)n3)C2SC1 (centres unmarked) [Example 3, 7-[(Z)-2-(2-Aminothiazol-4-yl)-2-methoxyiminoacetamido]-3-(N,N-dimethyl-N-allylammonium)methyl-3-cephem-4-carboxylate] | 1.4 µg/mL | 3.6 µg/mL | 0.044 µg/mL | 0.22 µg/mL | 0.69 µg/mL | 5.6 µg/mL | 
CO/N=C(\C(=O)NC1C(=O)N2C(C(=O)[O-])=C(C[N+](C)(C)Cc3cccnc3)CSC12)c1csc(N)n1 (centres unmarked) [Example 4, 7-[(Z)-2-(2-Aminothiazol-4-yl)-2-methoxyiminoacetamido]-3-[N,N-dimethyl-N-(3-pyridylmethyl)ammonium]methyl-3-cephem-4-carboxylate] | 2.1 µg/mL | 4.7 µg/mL | 0.057 µg/mL | 0.22 µg/mL | 0.69 µg/mL | 7.1 µg/mL | 
